These results are taken from patent US7214767B2, “VHL peptide” (Hiroshi Kanno, priority 2005, dated 2007).

Data set [1] has as its system Parkinson's model rat. The experiment in a line: Apomorphine induced rotation after grafting of VHL peptide-introduced neural stem cells. Type of data set: in vivo. To be noted: after two months; 10^5 peptide-introduced neural stem cells grafted to striatum. How it is done: (§1) Next, it was studied whether the symptom could be improved by grafting of neural stem cells into which VHL (157–171) oligopeptide was introduced within the central nervous system of a nerve disease animal. Parkinson's model rat as a nerve disease animal was prepared by injection of microdose of 6-hydroxydopamine into brain of rat and depletion of unilateral dopamine producing cells. Two weeks later, apomorphine induced rotation was studied and rat rotating not less than 7 times per one minute was determined as Parkinson's disease model. 10^5 neural stem cells into which VHL (157–171) oligopeptide was introduced were grafted to striatum of cerebrum of rat. After grafting, apomorphine induced rotation was determined every week. […] As behavior analysis, paw reaching test (a test wherein an ability to eat pellets placed on stairs by extending one side injured leg is studied.) was conducted and […] (FIG. 6).

Data set [2] has as its system Parkinson's disease model rat. The experiment in a line: Pathological and histological study of the brain after grafting. Type of data set: in vivo. The settings on record: peptide-introduced neural stem cells grafted to striatum. How it is done:
as §1

For data set [3], the system named is Parkinson's model rat. The experiment in a line: Paw reaching test after grafting of VHL peptide-introduced neural stem cells. Type of data set: in vivo. To be noted: peptide-introduced neural stem cells grafted to striatum. As to the method:
as §1

Data set [4] deals with neural stem cells derived from the adult rat hippocampus. The experiment in a line: VHL oligopeptide introduced in vitro into neural stem cells using BioPORTER Reagent. Type of data set: cell-based. The settings on record: for morphological change compared with control group: 8 hours after introduction. How it is done: The oligopeptide prepared according to the above-described method was introduced in vitro into neural stem cells derived from the adult rat hippocampus at a concentration of 10–1000 ng/ml using BioPORTER Reagent (BioPORTER protein delivery reagent: Gene Therapy Systems, Inc., San Diego, Calif., U.S.A.). […] When this was immunofluorescence stained at a concentration of 100 ng/mL 24 hours after introduction, it was confirmed that 72% of them was differentiated into neurons, and 12% was differentiated into neuroglia cells (FIG. 4). Thereby, it was clarified that VHL could induce neuronal differentiation even by the method of peptide introduction not by introduction of gene.

Data set [5] deals with skin stem cells. The data set is described as follows: Induction of differentiation of skin stem cells by VHL protein (FIG. 1). The format is cell-based. The settings on record: neurofilament positive neuron. From the text: FIG. 1 is a fluorescence photomicrograph showing induction of differentiation of skin stem cell into neurofilament positive neuron.
A VHL gene, which is the causative gene of von Hippel-Lindau disease, a hereditary disease causing brain tumor (hemangioblastoma) or renal cancer, is a kind of a tumor suppressor gene. This gene was isolated from human chromosome 3 by Dr. Zbar et al.'s group (U.S.A.) in 1993. It has been reported that the VHL gene and the protein are expressed in neurons. However, the function of this gene in the nervous system was unknown. We considered that the gene may be involved in the formation of the nervous system at fetal developmental stages and studied differentiation over time of neural stem cells isolated from a rat fetal brain. […] As a result, when VHL gene is introduced to express VHL protein, neural stem cells are differentiated into neurons. Thus, it was clarified that VHL protein has a function to induce differentiation of nerves.

In data set [6] the test system is neural stem cells. The experiment in a line: Cytotoxicity of the method of introduction into cells. Type of data set: cell-based. The source says:
It became clear from this that VHL (157–171) has an activity of inducing neuronal differentiation.

Setting [7] is: 100 ng/mL, 24 hours after introduction, BioPORTER Reagent.

Take “TLKERCLQVVRSLVK [VHL (157–171) oligopeptide]”: in data set [1], the “rats showing zero of apomorphine induced rotation” value is “about 30%”. Moreover, in data set [2], the “grafted cells taken within the brain” value is given as “about 70%”. Also, the “type of the grafted cells taken within the brain” value in data set [2] is “most of them were neurofilament positive neurons”; in data set [2] (listed as VHL gene), “most of them are neuronal filaments”. Besides, the “behavior analysis (paw reaching test, apomorphine induced rotation) compared with control group” value in data set [3] is reported as “significant improvement”. Besides, the “cells differentiated into neuroglia cells (immunofluorescence staining)” value in data set [4] (setting [7]) is recorded as 12%. The “cells differentiated into neurons (immunofluorescence staining)” value in data set [4] (setting [7]) amounted to 72%. Besides, the “morphological change compared with control group” value is “more marked as compared with the control group” in data set [4] (BioPORTER Reagent) and “marked as compared with control group” in data set [4] (BioPORTER Reagent, listed as VHL peptide). Further, the “concentration at which neural stem cells showed inclination to differentiate to neuron morphologically, elongation of neural spine observed” value in data set [4] (after 4 hours, introduced at 10–1000 ng/ml using BioPORTER Reagent) is “not less than 10 ng/ml”.
In the case of “VHL protein: von Hippel-Lindau protein consisting of 213 full length amino acids”, the “differentiation of skin stem cells into neurons” value in data set [5] is “induces differentiation of skin stem cells into neurons”.
For “Ac-TLKERCLQVVRSLVKKKWKMRRNQFWVKVQRGK-NH2 [VHL (157–171)-ANT]”, in data set [6], the cytotoxicity result is reported as “does not show cytotoxicity”.
